According to ChEMBL document CHEMBL1201862, “PubChem BioAssay data set” (2004):
Where a name gives a salt, the structure may show the parent alone.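 In this assay, cells in 96-well plates receive the compound at five concentrations for 48 hours. Endpoints are linearly interpolated between the surrounding concentrations. The concentration for 50% growth inhibition is given as GI50.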 The source made the active and inactive calls. No stated cut-off is given here; in the data, active = GI50 up to about 1.1 µM and inactive = higher.

How the values were obtained:
Test in all cases: inhibition of tumour cell growth, NCI panel, 48 h
[1] = test system: A498
[2] = test system: SK-MEL-28
[3] = test system: M14
[4] = test system: DU-145
[5] = test system: HOP-92
[6] = test system: ACHN
[7] = test system: SW-620
[8] = test system: TK-10
[9] = test system: SF-268
[10] = test system: HOP-62
[11] = test system: SNB-19
[12] = test system: OVCAR-4
[13] = test system: MDA-MB-435
[14] = test system: NCI-H226
[15] = test system: 786-0
[16] = test system: UACC-62
[17] = test system: BT-549
[18] = test system: MDA-MB-231
[19] = test system: KM12
[20] = test system: U-251
[21] = test system: SF-539
[22] = test system: OVCAR-5
[23] = test system: HCC 2998
[24] = test system: OVCAR-3
[25] = test system: SF-295
[26] = test system: SK-MEL-5
[27] = test system: SK-OV-3
[28] = test system: LOX IMVI
[29] = test system: RXF 393
[30] = test system: COLO 205
[31] = test system: SNB-75
[32] = test system: HCT-116
[33] = test system: NCI-H460
[34] = test system: MDA-N
[35] = test system: T47D
[36] = test system: OVCAR-8
[37] = test system: A549
[38] = test system: EKVX
[39] = test system: UACC-257
[40] = test system: HCT-15
[41] = test system: CAKI-1
[42] = test system: IGROV-1
[43] = test system: SK-MEL-2
[44] = test system: SN12C
[45] = test system: NCI-H23
[46] = test system: HT-29
[47] = test system: NCI/ADR-RES
[48] = test system: UO-31
[49] = test system: HL-60
[50] = test system: K562
[51] = test system: SR
[52] = test system: MOLT-4
[53] = test system: Malme-3M
[54] = test system: Hs-578T
[55] = test system: CCRF-CEM
[56] = test system: PC-3
[57] = test system: MCF7
[58] = test system: RPMI-8226

Compound: Cc1ccc2c(c1)[nH]c(=S)n2C=C(C(N)=O)C(N)=O
- GI50 [1]: > 100 µM (inactive)
- GI50 [2]: > 100 µM (inactive)
- GI50 [3]: > 100 µM (inactive)
- GI50 [4]: > 100 µM (inactive)
- GI50 [5]: > 100 µM (inactive)
- GI50 [6]: > 100 µM (inactive)
- GI50 [7]: > 100 µM (inactive)
- GI50 [8]: > 100 µM (inactive)
- GI50 [9]: > 100 µM (inactive)
- GI50 [10]: > 100 µM (inactive)
- GI50 [11]: > 100 µM (inactive)
- GI50 [12]: > 100 µM (inactive)
- GI50 [13]: > 100 µM (inactive)
- GI50 [14]: > 100 µM (inactive)
- GI50 [15]: > 100 µM (inactive)
- GI50 [16]: > 100 µM (inactive)
- GI50 [17]: > 100 µM (inactive)
- GI50 [18]: > 100 µM (inactive)
- GI50 [19]: > 100 µM (inactive)
- GI50 [20]: > 100 µM (inactive)
- GI50 [21]: > 100 µM (inactive)
- GI50 [22]: > 100 µM (inactive)
- GI50 [23]: > 100 µM (inactive)
- GI50 [24]: > 100 µM (inactive)
- GI50 [25]: > 100 µM (inactive)
- GI50 [26]: > 100 µM (inactive)
- GI50 [27]: > 100 µM (inactive)
- GI50 [28]: > 100 µM (inactive)
- GI50 [29]: > 100 µM (inactive)
- GI50 [30]: > 100 µM (inactive)
- GI50 [31]: > 100 µM (inactive)
- GI50 [32]: > 100 µM (inactive)
- GI50 [33]: > 100 µM (inactive)
- GI50 [34]: > 100 µM (inactive)
- GI50 [35]: > 100 µM (inactive)
- GI50 [36]: > 100 µM (inactive)
- GI50 [37]: > 100 µM (inactive)
- GI50 [38]: 33.3 µM (inactive)
- GI50 [39]: > 100 µM (inactive)
- GI50 [40]: > 100 µM
- GI50 [41]: > 100 µM (inactive)
- GI50 [42]: > 100 µM (inactive)
- GI50 [43]: > 100 µM (inactive)
- GI50 [44]: > 100 µM (inactive)
- GI50 [45]: > 100 µM (inactive)
- GI50 [46]: > 100 µM (inactive)
- GI50 [47]: > 100 µM (inactive)
- GI50 [48]: > 100 µM (inactive)
- GI50 [49]: 5.66 µM (inactive)

Compound: N#Cc1cccc2c1Sc1ccccc1N2
- GI50 [1]: 14.8 µM (inactive)
- GI50 [3]: 25.8 µM (inactive)
- GI50 [4]: 40.6 µM (inactive)
- GI50 [5]: 32.3 µM (inactive)
- GI50 [50]: 17.4 µM (inactive)
- GI50 [6]: 33.4 µM (inactive)
- GI50 [7]: 20.7 µM (inactive)
- GI50 [8]: 17.1 µM (inactive)
- GI50 [9]: 30.8 µM (inactive)
- GI50 [11]: 33.1 µM (inactive)
- GI50 [13]: 27.3 µM (inactive)
- GI50 [14]: 29.3 µM (inactive)
- GI50 [15]: 30.2 µM (inactive)
- GI50 [16]: 27.2 µM (inactive)
- GI50 [51]: 33.7 µM (inactive)
- GI50 [17]: 28.4 µM (inactive)
- GI50 [18]: 24.5 µM (inactive)
- GI50 [19]: 32.7 µM (inactive)
- GI50 [20]: 20 µM (inactive)
- GI50 [21]: 20.4 µM (inactive)
- GI50 [22]: 26.7 µM (inactive)
- GI50 [23]: 27 µM (inactive)
- GI50 [24]: 57 µM (inactive)
- GI50 [25]: 23.9 µM (inactive)
- GI50 [26]: 0.553 µM (active)
- GI50 [52]: 11.5 µM (inactive)
- GI50 [27]: 38.9 µM (inactive)
- GI50 [53]: 41.6 µM (inactive)
- GI50 [28]: 10.4 µM (inactive)
- GI50 [54]: 0.397 µM (active)
- GI50 [55]: 7.48 µM (inactive)
- GI50 [29]: 3.7 µM (inactive)
- GI50 [30]: 19.8 µM (inactive)
- GI50 [31]: 1.77 µM (inactive)
- GI50 [56]: 14.1 µM (inactive)
- GI50 [32]: 31.3 µM (inactive)
- GI50 [33]: 32.5 µM (inactive)
- GI50 [35]: 19.2 µM (inactive)
- GI50 [36]: 29.5 µM (inactive)
- GI50 [37]: 24.5 µM (inactive)
- GI50 [38]: 19.1 µM (inactive)
- GI50 [39]: 35.1 µM (inactive)
- GI50 [40]: 23.6 µM
- GI50 [57]: 30.2 µM (inactive)
- GI50 [41]: 32.2 µM (inactive)
- GI50 [42]: 45.1 µM (inactive)
- GI50 [58]: 27.7 µM (inactive)
- GI50 [44]: 39.2 µM (inactive)
- GI50 [45]: 21.2 µM (inactive)
- GI50 [46]: 32.7 µM (inactive)
- GI50 [47]: 31.3 µM (inactive)
- GI50 [48]: 27.1 µM (inactive)
- GI50 [49]: 27.3 µM (inactive)

Compound: CC/C(=C(\c1ccccc1)c1ccc(OCCN(C)C)cc1)c1ccccc1 [TAMOXIFEN CITRATE]
- GI50 [1]: 4.38 µM (inactive)
- GI50 [3]: 4.42 µM (inactive)
- GI50 [5]: 4.57 µM (inactive)
- GI50 [50]: 3.3 µM (inactive)
- GI50 [6]: 6.1 µM (inactive)
- GI50 [8]: 5.18 µM (inactive)
- GI50 [10]: 5.12 µM (inactive)
- GI50 [12]: 5.6 µM (inactive)
- GI50 [14]: 6.34 µM (inactive)
- GI50 [15]: 4.43 µM (inactive)
- GI50 [16]: 5.26 µM (inactive)
- GI50 [51]: 4.86 µM (inactive)
- GI50 [17]: 6.07 µM (inactive)
- GI50 [18]: 4.97 µM (inactive)
- GI50 [23]: 3.81 µM (inactive)
- GI50 [24]: 5 µM (inactive)
- GI50 [26]: 4.17 µM (inactive)
- GI50 [52]: 3.4 µM (inactive)
- GI50 [28]: 3.99 µM (inactive)
- GI50 [54]: 5.58 µM (inactive)
- GI50 [55]: 4.75 µM (inactive)
- GI50 [29]: 3.87 µM (inactive)
- GI50 [30]: 4.1 µM (inactive)
- GI50 [56]: 4.18 µM (inactive)
- GI50 [32]: 4.8 µM (inactive)
- GI50 [34]: 4.68 µM (inactive)
- GI50 [35]: 3.05 µM (inactive)
- GI50 [36]: 6.32 µM (inactive)
- GI50 [37]: 5.79 µM (inactive)
- GI50 [38]: 7.03 µM (inactive)
- GI50 [39]: 4.81 µM (inactive)
- GI50 [40]: 4.67 µM
- GI50 [57]: 1.65 µM (inactive)
- GI50 [42]: 5.75 µM (inactive)
- GI50 [43]: 5.45 µM (inactive)
- GI50 [45]: 5.93 µM (inactive)
- GI50 [46]: 3.44 µM (inactive)
- GI50 [47]: 5.28 µM (inactive)
- GI50 [48]: 4.14 µM (inactive)
